# Test results: patent US9993494B2, “Compositions and methods for treating fibrotic disease” (eFFECTOR Therapeutics, Inc., priority 2014, dated 2018)
# Tested on: normal human lung fibroblasts
# Assay: Ribosomal profiling: translational efficiency in TGFβ-treated fibroblasts
# Format: cell-based
# Conditions: TGFβ-treated fibroblasts
# Description: Ribosomal profiling allows for measurement of changes in transcription and translation on a genome-wide basis accompanying TGFβ-dependent transformation of fibroblasts to myofibroblasts. Ribosomal profiles of the TGFβ-treated fibroblasts from Example 1 (about 6×10^6 cells/10 cm plate) were prepared and analyzed for changes in translational efficiencies with respect to potential disease-associated cellular changes accompanying this TGFβ-induced transformation.
# Briefly, cells were washed with cold PBS supplemented with cycloheximide and lysed with 1× mammalian cell lysis buffer for 10 minutes on ice. Lysates were clarified by centrifugation for 10 minutes at 14,000 rpm and supernatants were collected. Cell lysates were processed to generate ribosomal protected fragments and total mRNA according to the instructions included with the ARTseq Ribosome Profiling Kit (Illumina, San Diego, Calif.). Sequencing of total RNA (RNA) and of ribosome-protected fragments of RNA (RPF) was carried out using RNA-Seq methodology according to the manufacturer's instructions (Illumina). To analyze the ribosomal profiles, RNA-Seq reads were processed with tools from the FASTX-Toolkit (fastq_quality_trimmer, fastx_clipper and fastx_trimmer). Unprocessed and processed reads were evaluated for a variety of quality measures using FastQC, and processed reads were mapped to the human genome using TopHat (see, e.g., Trapnell et al., Bioinformatics 25:1105, 2009). Gene-by-gene assessment of the number of fragments strictly and uniquely mapping to the coding region of each gene was conducted using HTSeq-count, a component of the HTSeq package. […] Genes with low counts in either RPF or RNA were excluded from differential analyses. Pathway and network analyses of differential data were conducted using Ingenuity Pathway Analysis (IPA).
smiles,measurement,setting,value
CC(C)n1nc(-c2cc3cc(O)ccc3[nH]2)c2c(N)ncnc21 [PP242],renormalizing the translational profile of COX7C,ENSG00000127184,− (− = <0.9)
same,renormalizing the translational profile of LIF,ENSG00000128342,− (− = <0.9)
same,renormalizing the translational profile of MTUS1,ENSG00000129422,+ (+ = 0.9 to 1.5)
same,renormalizing the translational profile of ARHGEF6,ENSG00000129675,− (− = <0.9)
same,renormalizing the translational profile of RPL36,ENSG00000130255,− (− = <0.9)
same,renormalizing the translational profile of GDF15,ENSG00000130513,− (− = <0.9)
same,renormalizing the translational profile of ASS1,ENSG00000130707,− (− = <0.9)
same,renormalizing the translational profile of EIF2S3,ENSG00000130741,− (− = <0.9)
same,renormalizing the translational profile of RPL27,ENSG00000131469,− (− = <0.9)
same,renormalizing the translational profile of MATN3,ENSG00000132031,− (− = <0.9)
same,renormalizing the translational profile of PPARG,ENSG00000132170,− (− = <0.9)
same,renormalizing the translational profile of RARRES3,ENSG00000133321,− (− = <0.9)
same,renormalizing the translational profile of BIVM,ENSG00000134897,+ (+ = 0.9 to 1.5)
same,renormalizing the translational profile of ATP5G2,ENSG00000135390,+ (+ = 0.9 to 1.5)
same,renormalizing the translational profile of KRT7,ENSG00000135480,− (− = <0.9)
same,renormalizing the translational profile of HNRNPA1,ENSG00000135486,+ (+ = 0.9 to 1.5)
same,renormalizing the translational profile of IL6,ENSG00000136244,− (− = <0.9)
same,renormalizing the translational profile of RPL35,ENSG00000136942,− (− = <0.9)
same,renormalizing the translational profile of NOV,ENSG00000136999,− (− = <0.9)
same,renormalizing the translational profile of IER3,ENSG00000137331,− (− = <0.9)
same,renormalizing the translational profile of DDX60,ENSG00000137628,− (− = <0.9)
same,renormalizing the translational profile of RPLP1,ENSG00000137818,− (− = <0.9)
same,renormalizing the translational profile of PAQR5,ENSG00000137819,− (− = <0.9)
same,renormalizing the translational profile of AOX1,ENSG00000138356,− (− = <0.9)
same,renormalizing the translational profile of FGF5,ENSG00000138675,++ (++ = 1.5 to 2.0)
same,renormalizing the translational profile of PDE5A,ENSG00000138735,− (− = <0.9)
same,renormalizing the translational profile of GAS2L3,ENSG00000139354,− (− = <0.9)
same,renormalizing the translational profile of DIAPH3,ENSG00000139734,− (− = <0.9)
same,renormalizing the translational profile of MYO19,ENSG00000141140,− (− = <0.9)
same,renormalizing the translational profile of RPL13A,ENSG00000142541,− (− = <0.9)
same,renormalizing the translational profile of RPL11,ENSG00000142676,− (− = <0.9)
same,renormalizing the translational profile of ACTA1,ENSG00000143632,− (− = <0.9)
same,renormalizing the translational profile of PLEKHA6,ENSG00000143850,− (− = <0.9)
same,renormalizing the translational profile of RPL32,ENSG00000144713,− (− = <0.9)
same,renormalizing the translational profile of RPL37,ENSG00000145592,− (− = <0.9)
same,renormalizing the translational profile of BTF3,ENSG00000145741,− (− = <0.9)
same,renormalizing the translational profile of HIGD2A,ENSG00000146066,+ (+ = 0.9 to 1.5)
same,renormalizing the translational profile of CREB5,ENSG00000146592,− (− = <0.9)
same,renormalizing the translational profile of DENND2A,ENSG00000146966,− (− = <0.9)
same,renormalizing the translational profile of RPL10,ENSG00000147403,− (− = <0.9)
same,renormalizing the translational profile of EIF3H,ENSG00000147677,− (− = <0.9)
same,renormalizing the translational profile of RPL7A,ENSG00000148303,− (− = <0.9)
same,renormalizing the translational profile of EIF3M,ENSG00000149100,− (− = <0.9)
same,renormalizing the translational profile of JPH2,ENSG00000149596,− (− = <0.9)
same,renormalizing the translational profile of FAU,ENSG00000149806,− (− = <0.9)
same,renormalizing the translational profile of CCDC102B,ENSG00000150636,− (− = <0.9)
same,renormalizing the translational profile of FRMD4A,ENSG00000151474,− (− = <0.9)
same,renormalizing the translational profile of HOMER1,ENSG00000152413,− (− = <0.9)
same,renormalizing the translational profile of PLEKHH2,ENSG00000152527,− (− = <0.9)
same,renormalizing the translational profile of ANKH,ENSG00000154122,− (− = <0.9)
same,renormalizing the translational profile of ABCA6,ENSG00000154262,− (− = <0.9)
same,renormalizing the translational profile of OBSCN,ENSG00000154358,− (− = <0.9)
same,renormalizing the translational profile of ADAMTS5,ENSG00000154736,− (− = <0.9)
same,renormalizing the translational profile of OXA1L,ENSG00000155463,− (− = <0.9)
same,renormalizing the translational profile of C9orf85,ENSG00000155621,+ (+ = 0.9 to 1.5)
same,renormalizing the translational profile of RPL30,ENSG00000156482,− (− = <0.9)
same,renormalizing the translational profile of EEF1A1,ENSG00000156508,+ (+ = 0.9 to 1.5)
same,renormalizing the translational profile of NRG1,ENSG00000157168,− (− = <0.9)
same,renormalizing the translational profile of ADAMTS4,ENSG00000158859,− (− = <0.9)
same,renormalizing the translational profile of RPL8,ENSG00000161016,− (− = <0.9)
same,renormalizing the translational profile of RPL26,ENSG00000161970,− (− = <0.9)
same,renormalizing the translational profile of RPL29,ENSG00000162244,− (− = <0.9)
same,renormalizing the translational profile of CAMK2N1,ENSG00000162545,− (− = <0.9)
same,renormalizing the translational profile of IGFBP7,ENSG00000163453,− (− = <0.9)
same,renormalizing the translational profile of RPL22L1,ENSG00000163584,− (− = <0.9)
same,renormalizing the translational profile of RPL9,ENSG00000163682,− (− = <0.9)
